The values that follow come from US20240108637A1, “EPITE[…] AND/OR A STEROID SULFATASE INHIBITOR FOR USE IN TREATING OR IMPROVING AGE RELATED COGNITIVE IMPAIRMENT” (U[…] DE OLAVIDE, priority 2020, published 2024).

The test system of assay [1] is NL5901 strain expressing α-synuclein in muscle cells. Kind of assay: Parkinson's disease model: mobility of NL5901 strain. It is filed as in vivo, C. elegans. To be noted: 1 μg/ml. The source says:
We have studied the anatomical location of sul-2 expression from an extrachromosomal array and in single-copy insertion transgenic strains. […] There is no detectable expression in the germline in any transgenic strains (FIG. 2n and FIG. 10, 11a-b). ASE neurons are responsible for the attractive response of Na+ and Cl−, among others. Defects in odour sensing affect longevity. Therefore, we tested the ability of sul-2 mutants to respond to Cl− or Na+ and found no differences compared to wild type animals (FIG. 11c-d). Furthermore, sul-2 mutation increases the longevity of daf-10(m79), a long-lived mutant defective in sensory cilia formation25 (FIG. 11e). […] Reduction of sul-2 improves aging associated diseases in C. elegans Aging is considered the main risk factor for the onset of neurodegenerative disorders like Parkinson, Huntington, or Alzheimer's diseases. These disorders are caused by the progressive decline of proteostasis, which results in protein aggregation that compromises cellular functions and finally causes cell death. Germline-deficient C. elegans delay the symptoms derived from the proteotoxicity of ectopically expressed human β-amyloid (βA). We tested if sul-2 mutations or STX64 treatment improves the symptoms of C. elegans models for neurodegenerative diseases.

For assay [2], the system named is mammalian model with intrahippocampal βA oligomers. To be noted: local administration; previously reported; cited from earlier work.
The subject of a further assay is C. elegans. Kind of assay: Lifespan assays in C. elegans. To be noted: for life span / longevity: wild type background, FIG. 4f-g, FIG. 13c-d. It is filed as in vivo, Caenorhabditis elegans. The procedure:
F2 L4 animals were shifted to 25° C. (t=0). ES treatment started at L4 stage, control and treated plates were prepared fresh and animals transferred each three days until death. Animals lost or dead by non-physiological causes were censured. Survival curves were generated using the product-limit method of Kaplan and Meier. The log-rank (Mantel-Cox) test was used to evaluate differences in survival and […] lower than 0.05 were considered significant.

Assay [3] concerns GMC101 strain expressing human β-amyloid in muscle. Kind of assay: Alzheimer's disease model: thermodependent paralysis of GMC101 strain. It is filed as in vivo, C. elegans. To be noted: 1 μg/ml. The source says: In this model, GFP-labelled dopaminergic neurons die due to α-synuclein toxicity. […] We also tested two different strains of Alzheimer's disease (AD) in worms, where immobility is caused by expression of βA protein in muscle cells.

A further assay deals with daf-2(e1370). Kind of assay: Developmental arrest (dauer / L1) at 25° C. Format: in vivo, C. elegans. Particulars: daf-2(e1370) background. The protocol:
Worms were growth at 16° C. until L4, then shifted to 25° C. considering this Day 0 of adulthood. The pumping was counted under the Leica stereoscope at 100× magnification for 30 seconds. Data display from two independent biological assays (n=30 per day). Two-tailed Mann-Whitney t-test, ***p=0.0006. e Thrashing in sul-2(gk187) is similar to wild type but is slightly lower in sul-2 (pv17) at 25° C. on day 1 of adulthood. On day 6 at 25° of adulthood, the trashing on sul-2(gk187) is lower than wild type and sul-(pv17), with no differences among these last strains. The population of sul-2(gk17) at day 6 seems to distribute into two different populations, one with almost no thrashing and other with values similar to wild type a sul-2(pv17). […] In this condition, all animals from daf-2(e1370); sul-2(pv17) double mutants arrest at L1 stage. Similarly, more than 50% of animals arrest in L1 stage in daf-2(m577); sul-2(pv17) background, while none of the single mutants show this phenotype. i Example of sul-2(pv17) larvae, dauer larval arrest of daf-2(e1370) or L1 arrest of daf-2(e1370); sul-2 (pv17) and daf-2(e1370); sul-2(gk187) at 25° C. Animals were grown up to L4 at 16° C., then shifted at 25° C., progeny were scored or imaged after 72 hours. Photographs were taken in a Leica scope.

Assay [4] deals with aged mice. Kind of assay: Object recognition test in aged mice. Format: in vivo. Particulars: aged mice, vs vehicle-treated, FIG. 21. The procedure:
(§1) The first, object recognition, after training with identical objects, tests the ability to identify different objects exposed together with a familiar one. When this happens, the object discrimination index is positive and higher than 0.1. […] For this purpose, during training, the entry latency to the preferred site is established and the aversive stimulus is administered.

Assay [5] concerns aged mice. Kind of assay: Passive avoidance test in aged mice (STM and LTM). Format: in vivo. To be noted: aged mice, vs vehicle-treated, FIG. 21. The protocol: as §1
During short- and long-term memory tests (STM and LTM) if the mouse associated the preferred place to the aversive stimulus, the input latency increases with respect to training.

Assay [6] concerns 16-month-old mice. Kind of assay: Open Field test. Format: in vivo. Particulars: FIG. 20; for habituation ability: aged animals, Open Field 15 minutes. The protocol: (§2) The “Open Field” is a test where the mouse must explore an unknown space for 15 minutes. In this test, both mobility and habituation (cognitive parameter that measures the individual's ability to recognize the environment) can be studied. On the other hand, the “Y maze” test is a test where the mouse explores the maze for 6 minutes. This test evaluates the distance traveled as a measure of mobility and the ability to visit triplets of arms without repeating any of them as a sign of immediate memory.

Assay [7] deals with 16-month-old mice. Kind of assay: Y maze test. Format: in vivo. To be noted: aged animals, Y maze 6 minutes, FIG. 20. The procedure: as §2

Entries after “also recorded” stand apart in the source; their conditions may differ. Counter-ions that a name gives are not always drawn.

For the compound `C[C@]12CC[C@H](O)CC1=CC[C@@H]1[C@@H]2CC[C@]2(C)C(=O)CC[C@@H]12` [DHEA], the mobility with age result in [1] is reported as “No effect is observed; also recorded: showed no effect”.

Take `CCCCCCCCCCCCCC(=O)NCCc1ccc(OS(N)(=O)=O)cc1` [DU-14]: in assay [2], the memory loss result is on record as “could alleviate memory loss”.

Take `C[C@]12CC[C@H]3[C@@H](CCC4=CC(=O)CC[C@@]43C)[C@@H]1CC[C@H]2OS(=O)(=O)O` [ES, N,N-diethylethanamine;[(8R,9S,10R,13S,14S,17R)-10,13-dimethyl-3-oxo-1,2,6,7,8,9,11,12,14,15,16,17-dodecahydrocyclopenta[a]phenanthren-17-yl]hydrogen sulfate]: the lifespan entry is on record as “significantly increased life span” in the assay with C. elegans (FIG. 15, treatment from L4 stage, 25° C., fer-15(b26) background, p<0.05 Log-Rank (Mantel-Cox)); “does not further increase” with C. elegans (sul-2(gk187) background, 1 μg/ml, FIG. 4f); “does not increase further” with C. elegans (sul-2(pv17) background, 1 μg/ml, FIG. 13c,d). Further, the longevity result with C. elegans (sul-2 mutants backgrounds) is given as “did not further increase longevity”. Moreover, the “life span / longevity” value in the assay with C. elegans (1 μg/ml) is listed as “increases life span; also recorded: increased in longevity; also recorded: increases lifespan”. Also, the mobility with age result in assay [1] is on record as “improved the mobility; also recorded: better result”. The paralysis phenotype result in [3] (FIG. 3h, FIG. 4b) is “is ameliorate”; in assay [3] (normal NGM plates, FIG. 13a), “is reduced”. In the assay with daf-2(e1370), the L1 arrest entry is listed as “increase”. Besides, the “learning and memory, object recognition test” value in the assay with aged mice [4] was “showed significantly both learning (STM) and ability to store information (memory); also recorded: significant improvement in both learning (STM) and ability to store information (memory)”; in the assay with aged mice [4] (listed as E-S), “showed significantly both learning (STM) and ability to store information (memory)”. The “learning (STM) and memory (LTM), passive avoidance test” value with aged mice [5] was “showed significantly both learning (STM) and ability to store information (memory); also recorded: significant improvement in both learning (STM) and ability to store information (memory)”; in the assay on aged mice [5] (listed as E-S), “showed significantly both learning (STM) and ability to store information (memory)”. For the same compound, in the assay with 16-month-old mice [6] (16-month-old mice, Open Field mobility and Y maze distance traveled), the “motor ability (mobility)” value was “tend to improve”. The habituation ability entry was “tend to improve” with 16-month-old mice [6] and “are improved” in the assay on 16-month-old mice [6] (listed as E-S). Also, the immediate memory entry in the assay on 16-month-old mice [7] was “tend to improve”; with 16-month-old mice [7] (listed as E-S), “are improved”.

With `C[C@]12CC[C@H]3[C@@H](CCC4=CC(=O)CC[C@@]43C)[C@@H]1CC[C@@H]2O` [T, testosterone], the mobility with age result was “No effect is observed” in [1] and “showed no effect” in assay [1] (listed as testosterone).

Take `C[C@]12CC[C@H]3[C@@H](CCC4=CC(=O)CC[C@@]43C)[C@@H]1CC[C@@H]2OS(=O)(=O)O` [TS, [(8R,9S,10R,13S,14S,17S)-10,13-dimethyl-3-oxo-1,2,6,7,8,9,11,12,14,15,16,17-dodecahydrocyclopenta[a]phenanthren-17-yl] hydrogen sulfate]: the “life span / longevity” value in the assay on C. elegans (1 μg/ml) is “does not affect longevity; also recorded: do not affect”. Further, the mobility with age result in assay [1] is given as “improved the mobility”. The paralysis phenotype result was “is ameliorate” in assay [3] (FIG. 3h, FIG. 4b) and “is reduced” in assay [3] (normal NGM plates, FIG. 13a). Moreover, the L1 arrest entry in the assay with daf-2(e1370) is “increase”.

With dehidroepiandrosterone sulfate [DHEAS], the “life span / longevity” value in the assay with C. elegans (1 μg/ml) is “does not affect longevity; also recorded: do not affect”. In addition, the mobility with age entry in [1] was “improved the mobility”. In the assay on daf-2(e1370), the L1 arrest result is on record as “increase”.

Turning to pregnenolone sulfate [PregS], the mobility with age entry is reported as “No effect is observed” in assay [1] and “showed no effect” in [1] (listed as pregnenolone sulfate).
